Experimental data from patent publication US6340694B1, “Diarylbenzopyran derivatives as cyclooxygenase-2 inhibitors” (Pacific Corporation, priority 1998, dated 2002).

Columns and labels:
COX-2 = target: T1, COX-2 (Mus musculus, UniProt Q05769); assay: Evaluation of COX-2's inhibition efficacy (PGE2 radioimmuno assay, LPS-induced, aspirin-pretreated peritoneal macrophages); assay type: cell-based, C57BL/6 mouse; settings: for inhibition at 1 µg/mL: 1 μg/ml; for inhibition at 10 µg/mL: 10 μg/ml; for inhibition at 0.1 µg/mL: 0.1 μg/ml
T1 construct: endogenous in cells; host or cells: peritoneal macrophages of C57BL/6 mouse, aspirin-pretreated, LPS-induced
T1 sequence (Q05769 18-604): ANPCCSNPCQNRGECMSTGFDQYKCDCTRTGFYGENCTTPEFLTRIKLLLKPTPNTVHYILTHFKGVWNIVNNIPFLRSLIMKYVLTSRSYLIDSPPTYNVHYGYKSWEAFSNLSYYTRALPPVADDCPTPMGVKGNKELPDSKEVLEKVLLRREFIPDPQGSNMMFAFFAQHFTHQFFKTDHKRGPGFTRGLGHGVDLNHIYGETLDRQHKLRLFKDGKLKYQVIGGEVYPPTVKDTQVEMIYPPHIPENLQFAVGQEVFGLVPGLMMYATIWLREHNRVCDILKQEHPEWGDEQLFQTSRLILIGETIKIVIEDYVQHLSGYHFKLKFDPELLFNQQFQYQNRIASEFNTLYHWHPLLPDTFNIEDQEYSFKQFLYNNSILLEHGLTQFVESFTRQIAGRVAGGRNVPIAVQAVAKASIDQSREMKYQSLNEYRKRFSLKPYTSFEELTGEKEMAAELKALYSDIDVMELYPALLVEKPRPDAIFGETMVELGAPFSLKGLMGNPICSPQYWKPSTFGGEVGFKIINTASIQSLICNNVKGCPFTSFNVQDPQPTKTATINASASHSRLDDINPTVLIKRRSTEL
Experimental: Regarding the compounds in the above Examples and indomethacin, the inhibition efficacy of COX-2 and COX-1 are being measured by the following two methods. […] Evaluation of COX-2's Inhibition Efficacy (J. Pharmacol. Exp. […] After cleaning C57BL/6 mouse's abdomen by 70% EtOH, the skin of mouse's abdomen was eliminated cautiously not to harm peritomeum and 5 ml of cold PBS was poured into the abdominal cavity and in certain times later macrophage-bleeding abdominal-liquid was collected by syringe. […] After putting 1 ml cell suspension having cell number of 1×10^6 cells/mu into each 24-well microtiter plates, macrophages were adhered to the bottom of plate by culturing in the condition of 5% CO2/95% O2, at a temperature of 37° C. for 2 hours. Other cells not being adhered to were eliminated by washing two times with PBS. The purity of macrophages obtained through this process was identified by differential counting. […] After inducing COX-2 by LPS, the cell culture medium was eliminated and macrophages was washed two times with PBS. And 1 ml of RRPI-1640 badge was added to each well again and after treating them with sample with appropriate concentration, they were cultured at a temperature of 37i É for 10 minutes. And then treated them with arachidonic acid to make their final concentration as 10 μM and cultured them additional 10 minutes, all the supernatant liquid of reaction was obtained. The amount of PGE2 produced in the supernatant liquid of reaction was determined by the PGE2 radioimmuno assay.

COX-1 = target: T2, COX-1 (Mus musculus, UniProt P22437); assay: Evaluation of COX-1's inhibition efficacy (macrophages without aspirin and LPS pre-treatment); assay type: cell-based, C57BL/6 mouse; settings: for inhibition at 10 µg/mL: 10 μg/ml; for inhibition at 1 µg/mL: 1 μg/ml
T2 construct: there is no pre-treatment of aspirin and LPS in the adhesion of macrophage; endogenous in cells; host or cells: peritoneal macrophages of C57BL/6 mouse, without aspirin and LPS pre-treatment
T2 sequence (P22437 27-602): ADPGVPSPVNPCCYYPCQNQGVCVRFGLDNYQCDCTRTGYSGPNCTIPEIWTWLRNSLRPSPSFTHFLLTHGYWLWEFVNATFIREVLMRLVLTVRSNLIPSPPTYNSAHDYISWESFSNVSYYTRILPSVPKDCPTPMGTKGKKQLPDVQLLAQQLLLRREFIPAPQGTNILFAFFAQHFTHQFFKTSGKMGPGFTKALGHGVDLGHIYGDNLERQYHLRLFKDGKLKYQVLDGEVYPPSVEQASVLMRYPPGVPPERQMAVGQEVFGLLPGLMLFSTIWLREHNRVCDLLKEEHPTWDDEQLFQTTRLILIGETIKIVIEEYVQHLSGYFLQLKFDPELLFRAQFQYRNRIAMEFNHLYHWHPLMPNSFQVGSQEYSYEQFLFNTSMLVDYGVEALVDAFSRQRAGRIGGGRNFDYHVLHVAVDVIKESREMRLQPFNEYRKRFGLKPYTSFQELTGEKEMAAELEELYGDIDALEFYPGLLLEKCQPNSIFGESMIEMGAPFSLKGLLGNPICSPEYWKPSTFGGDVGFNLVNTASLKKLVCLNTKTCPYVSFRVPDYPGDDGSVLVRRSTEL
Experimental: Regarding the compounds in the above Examples and indomethacin, the inhibition efficacy of COX-2 and COX-1 are being measured by the following two methods.
After cleaning C57BL/6 mouse's abdomen by 70% EtOH, the skin of mouse's abdomen was eliminated cautiously not to harm peritomeum and 5 ml of cold PBS was poured into the abdominal cavity and in certain times later macrophage-bleeding abdominal-liquid was collected by syringe. By adding RPMI-1640 badge containing penicillin(100 unit/mt) and streptomycin([…]) to cell pellet obtained by centrifugation of collected liquid about 5 minutes in 1500 rpm, it was disperesed and also COX-1 existing in the cell was inactivated by treating with 500 μM aspirin. After putting 1 ml cell suspension having cell number of 1×10^6 cells/mu into each 24-well microtiter plates, macrophages were adhered to the bottom of plate by culturing in the condition of 5% CO2/95% O2, at a temperature of 37° C. for 2 hours. Other cells not being adhered to were eliminated by washing two times with PBS. The purity of macrophages obtained through this process was identified by differential counting. After adding RPMI-1640 badge(normally 5×10^5 cell/ml) containing 3% right fetal blood serum to macrophage and treating it with LPS(lipopolysaccharide) to make final concentration as 10 μg/ml, it was cultured in the condition of 5% CO2, at a temperature of 37° C. for 16 hours. After inducing COX-2 by LPS, the cell culture medium was eliminated and macrophages was washed two times with PBS. And 1 ml of RRPI-1640 badge was added to each well again and after treating them with sample with appropriate concentration, they were cultured at a temperature of 37i É for 10 minutes. And then treated them with arachidonic acid to make their final concentration as 10 μM and cultured them additional 10 minutes, all the supernatant liquid of reaction was obtained. The amount of PGE2 produced in the supernatant liquid of reaction was determined by the PGE2 radioimmuno assay. The 100% COX-2's activation is referenced by the difference of the amount of PGE2 produced in the supernatant liquid of reaction between with 10 μM arachidonic acid treatment and without 10 μM arachidonic acid treatment.
2. Evaluation of COX-1's Inhibition Efficacy
Following the same procedure as the above evaluation of COX-2's inhibition efficacy, but there is no pre-treatment of aspirin and LPS in the adhesion of macrophage.

Row | SMILES | inhibition at 1 µg/mL (COX-2) [%] | inhibition at 10 µg/mL (COX-2) [%] | melting point [°C] | inhibition at 10 µg/mL (COX-1) [%] | inhibition at 0.1 µg/mL (COX-2) [%] | inhibition at 1 µg/mL (COX-1) [%]
1 | CS(=O)(=O)c1ccc(-c2oc3ccccc3c(=O)c2-c2ccc(C=O)cc2)cc1 [Example 9, 3-(4-Formylphenyl)-2-(4-(methylsulfonyl)phenyl)-4H-1-benzopyran-4-one] | < 5 | 29 | 189 to 190 | < 5 |  | 
2 | NS(=O)(=O)c1ccc(-c2oc3ccccc3c(=O)c2-c2ccccc2)cc1 [Example 53, 2-(4-(Aminosulfonyl)phenyl)-3-phenyl-4H-1-benzopyran-4-one] | 90 | 92 | 218 to 220 | 61 | 76 | 52
3 | COc1ccc(-c2c(-c3ccc(S(N)(=O)=O)cc3)oc3ccccc3c2=O)cc1 [Example 55, 2-(4-(Aminosulfonyl)phenyl)-3-(4-methoxyphenyl)-4H-1-benzopyran-4-one] | 90 | 100 | 252 to 254 | 84 |  | 66
4 | NS(=O)(=O)c1ccc(-c2oc3ccccc3c(=O)c2-c2ccc(Cl)c(Cl)c2)cc1 [Example 57, 2-(4-(Aminosulfonyl)phenyl)-3-(3,4-dichlorophenyl)-4H-1-benzopyran-4-one] | 96 |  | 215 to 217 | 75 | 48 | 
5 | NS(=O)(=O)c1ccc(-c2oc3ccc(F)cc3c(=O)c2-c2ccc(F)cc2)cc1 [Example 48, 2-(4-(Aminosulfonyl)phenyl)-6-fluoro-3-(4-fluorophenyl)-4H-1-benzopyran-4-one] | 100 |  | 224 to 226 | 48 | 63 | 36
6 | CS(=O)(=O)c1ccc(-c2oc3ccccc3c(=O)c2-c2ccc(C(F)(F)F)nc2)cc1 [Example 21, 2-(4-(Methylsulfonyl)phenyl)-3-(2-trifluoromethyl-5-pyridinyl)-4H-1-benzopyran-4-one] | 35 | 55 | 215 to 217 | < 5 |  | 
7 | COc1ccc(-c2c(-c3ccc(S(C)(=O)=O)cc3)oc3ccccc3c2=O)cn1 [Example 18, 3-(2-Methoxy-5-pyridinyl)-2-(4-(methylsulfonyl)phenyl)-4H-1-benzopyran-4-one] | 51 | 86 | 226 to 227 | 18 |  | 
8 | CS(=O)(=O)c1ccc(-c2oc3ccccc3c(=O)c2-c2cncc(Br)c2)cc1 [Example 19, 3-(5-Bromo-3-pyridinyl)-2-(4-(methylsulfonyl)phenyl)-4H-1-benzopyran-4-one] | 18 | 35 | 197 to 199 | 11 |  | 
9 | NS(=O)(=O)c1ccc(-c2oc3ccc(F)cc3c(=O)c2-c2cccc(F)c2)cc1 [Example 51, 2-(4-(Aminosulfonyl)phenyl)-6-fluoro-3-(3-fluorophenyl)-4H-1-benzopyran-4-one] | 83 | 100 | 257 to 258 | 6 | 56 | 
10 | NS(=O)(=O)c1ccc(-c2oc3ccccc3c(=O)c2-c2ccccc2F)cc1 [Example 58, 2-(4-(Aminosulfonyl)phenyl)-3-(2-fluorophenyl)-4H-1-benzopyran-4-one] | 63 | 96 | 215 to 217 | 60 |  | 34
11 | CS(=O)(=O)c1ccc(-c2oc3ccccc3c(=S)c2-c2cccc(Cl)c2)cc1 [Example 40, 3-(3-Chlorophenyl)-2-(4-(methylsulfonyl)phenyl)-4H-1-benzopyran-4-thione] | 29 | 69 | 196 to 198 | < 5 | 6 | 
12 | CS(=O)(=O)c1ccc(-c2oc3ccccc3c(=O)c2-c2ccncc2)cc1 [Example 16, 2-(4-(Methylsulfonyl)phenyl)-3-(4-pyridinyl)-4H-1-benzopyran-4-one] |  | 24 | 204 to 205 | < 5 |  | 
13 | Cc1ccccc1-c1c(-c2ccc(S(C)(=O)=O)cc2)oc2ccccc2c1=S [Example 41, 3-(2-Methylphenyl)-2-(4-(methylsulfonyl)phenyl)-4H-1-benzopyran-4-thione] | 36 | 96 | 234 | < 5 | < 5 | 
14 | CS(=O)(=O)c1ccc(-c2oc3ccccc3c(=O)c2-c2ccccc2)cc1 [Example 2, 2-(4-(Methylsulfonyl)phenyl)-3-phenyl-4H-1-benzopyran-4-one] | 68 | 81 | 208 to 209 | < 5 | 34 | 
15 | Cc1ccc(-c2c(-c3ccc(S(C)(=O)=O)cc3)oc3ccccc3c2=O)cn1 [Example 20, 3-(2-Methyl-5-pyridinyl)-2-(4-(methylsulfonyl)phenyl)-4H-1-benzopyran-4-one] | < 5 | 85 | 195 to 196 | < 5 |  | 
